The values below come from US10456390B2, “Combinations comprising MABA compounds and corticosteroids” (ALMIRALL, S.A., priority 2013, dated 2019).

The assay has as its system IL-8 secretion induced by LPS in peripheral blood neutrophils. Kind of assay: Inhibition of IL-8 secretion induced by LPS in isolated peripheral blood neutrophils (ELISA). The note with it: Homo sapiens, Neutrophil; for inhibition at 10 pM: single agent at 0.01 nM. The class given is cell-based. The procedure: 5 Healthy subjects were included for leukocyte experiments. Pulmonary function tests (forced spirometry) and arterial blood gas measurements were performed during the days prior to sample.
Neutrophils were isolated from peripheral blood of healthy volunteers according to standard procedures established in the laboratory (Milara J et al., Respiration 2012; 83, 147-158).
Isolated neutrophils were incubated with different drugs (MABA compound, mometasone or fluticasone) or vehicle for 30 minutes before incubation with LPS (1 mcg/mL) (Lipopolysaccharide, a representative stimulus as inflammatory mediator) for 6 hours in standard cell culture conditions (37° C. and 5% CO2). Supernatant were collected to measure IL-8 (the inflammatory marker).
IL-8 (Interleukin-8) was determined by ELISA according to the standard procedure.
Data was presented as mean±SEM (see FIG. 1 and FIG. 2). Statistical analysis of results was carried out by analysis of variance (ANOVA) followed by Bonferroni test, by Student's t test, or by non-parametric tests as appropriate (GraphPad Software Inc, San Diego, Calif., USA). Significance was accepted when P<0.05.

[1] abbreviates: 30 min pre-incubation, LPS 1 mcg/mL 6 h, neutrophils from healthy subjects (5 volunteers in triplicate), Table 1.

As a reminder, the inhibition is the percentage by which the read-out fell short of the control. The low end stands for a response near the control, the high end for a response far below the control. `CN(CCCn1nnc2cc(CNC[C@H](O)c3ccc(O)c4[nH]c(=O)ccc34)ccc21)[C@H]1CC[C@H](OC(=O)C(O)(c2cccs2)c2cccs2)CC1` [Cpd 2, Trans-4-[{3-[5-({[(2R)-2-hydroxy-2-(8-hydroxy-2-oxo-1,2-dihydroquinolin-5-yl)ethyl]amino}methyl)-1H-1,2,3-benzotriazol-1-yl]propyl}(methyl)amino]cyclohexyl hydroxy(di-2-thienyl)acetate] showed an inhibition at 10 pM under setting [1] of 4.17% and an inhibition at 10 pM (LPS-induced IL-8 secretion, neutrophils from healthy subjects, Table 2) of 4.17%.
The molecule `C[C@@H]1C[C@H]2[C@@H]3C[C@H](F)C4=CC(=O)C=C[C@]4(C)[C@@]3(F)[C@@H](O)C[C@]2(C)[C@@]1(O)C(=O)SCF` [Fluticasone, fluticasone] had an inhibition at 0.0001 µM (single agent at 0.1 nM, LPS-induced IL-8 secretion, neutrophils from healthy subjects, Table 2) of 10.2%.
Turning to `C[C@@H]1C[C@H]2[C@@H]3CCC4=CC(=O)C=C[C@]4(C)[C@@]3(Cl)[C@@H](O)C[C@]2(C)[C@@]1(O)C(=O)CCl` [Mometasone, mometasone], the inhibition at 10 pM under setting [1] is 2.85%.
